# Measured values published in BindingDB's records for doi:10.1111/j.1476-5381.1995.tb13240.x (Smithkline Beecham Pharmaceuticals, 1995).
# Columns and labels:
# [1] = target: 5-hydroxytryptamine receptor 2B (Rattus norvegicus, UniProt P30994)
# [2] = target: T1, 5-hydroxytryptamine receptor 2C (Homo sapiens, UniProt P28335)
# T1 sequence (P28335 whole entry): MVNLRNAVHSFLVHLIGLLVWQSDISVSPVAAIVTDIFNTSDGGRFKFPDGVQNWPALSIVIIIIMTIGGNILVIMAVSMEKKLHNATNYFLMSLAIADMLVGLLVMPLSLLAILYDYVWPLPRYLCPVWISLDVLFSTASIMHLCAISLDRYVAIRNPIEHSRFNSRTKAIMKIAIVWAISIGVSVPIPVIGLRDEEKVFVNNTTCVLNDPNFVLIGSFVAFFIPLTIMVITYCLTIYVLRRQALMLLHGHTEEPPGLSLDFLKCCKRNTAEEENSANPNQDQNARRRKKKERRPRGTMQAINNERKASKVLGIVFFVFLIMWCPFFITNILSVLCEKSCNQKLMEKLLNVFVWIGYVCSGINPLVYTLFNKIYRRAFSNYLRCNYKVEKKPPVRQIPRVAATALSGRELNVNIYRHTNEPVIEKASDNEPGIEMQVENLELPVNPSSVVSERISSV
# [3] = target: T2, 5-hydroxytryptamine receptor 2C (Rattus norvegicus, UniProt P08909)
# T2 sequence (P08909 whole entry): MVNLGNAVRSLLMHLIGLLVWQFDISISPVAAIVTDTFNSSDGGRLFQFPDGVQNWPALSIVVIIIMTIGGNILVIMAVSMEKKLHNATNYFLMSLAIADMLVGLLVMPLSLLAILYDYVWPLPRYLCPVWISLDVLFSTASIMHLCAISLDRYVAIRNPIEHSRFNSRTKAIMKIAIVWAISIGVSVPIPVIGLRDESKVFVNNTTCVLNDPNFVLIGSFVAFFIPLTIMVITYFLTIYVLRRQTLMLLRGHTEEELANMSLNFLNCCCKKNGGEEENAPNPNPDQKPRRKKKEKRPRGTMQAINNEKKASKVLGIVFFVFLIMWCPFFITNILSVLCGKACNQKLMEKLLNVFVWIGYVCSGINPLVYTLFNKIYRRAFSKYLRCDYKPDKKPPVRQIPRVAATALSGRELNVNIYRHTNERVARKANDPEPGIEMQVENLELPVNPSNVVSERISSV
# 5-hydroxytryptamine receptor 2B, sequence (P30994 whole entry): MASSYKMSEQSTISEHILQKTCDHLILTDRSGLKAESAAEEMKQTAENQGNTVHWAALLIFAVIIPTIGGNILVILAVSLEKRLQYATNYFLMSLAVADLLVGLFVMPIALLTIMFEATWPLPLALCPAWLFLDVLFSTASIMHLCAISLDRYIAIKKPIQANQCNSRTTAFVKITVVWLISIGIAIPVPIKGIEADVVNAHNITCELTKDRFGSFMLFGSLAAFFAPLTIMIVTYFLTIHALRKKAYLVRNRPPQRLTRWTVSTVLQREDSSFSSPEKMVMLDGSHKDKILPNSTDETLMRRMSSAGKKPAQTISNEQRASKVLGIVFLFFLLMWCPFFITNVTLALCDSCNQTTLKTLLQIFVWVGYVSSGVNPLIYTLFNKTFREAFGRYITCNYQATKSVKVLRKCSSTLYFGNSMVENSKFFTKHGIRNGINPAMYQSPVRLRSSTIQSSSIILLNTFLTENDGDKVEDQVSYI
SMILES,Ki [1] [µM],Ki [2] [µM],Ki [3] [µM]
CC(N)Cc1c[nH]c2ccc(OCc3cccs3)cc12 (stereo not drawn) [NSC_5311036],0.0126,0.316,
COC(=O)[C@@H]1[C@H]2C[C@H]3c4[nH]c5ccccc5c4CCN3C[C@@H]2CC[C@@H]1O [yohimbic acid methyl ester],,,5.01
